# Results reported in ChEMBL document CHEMBL1201862, “PubChem BioAssay data set” (2004).
# Calls of active or inactive are those of the source.
# What was measured:
# [1] = target: Peroxisome proliferator-activated receptor gamma/Nuclear receptor coactivator 1 (Homo sapiens, UniProt P37231); format: functional;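 also: agonist potency as compounds enhance coactivator SRC-1 recruitment to PPARgamma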
# [2] = target: Peroxisome proliferator-activated receptor gamma/Nuclear receptor coactivator 2 (Homo sapiens, UniProt P37231); format: functional;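 also: agonist potency for raising coactivator recruitment to the receptor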
# [3] = target: Peroxisome proliferator-activated receptor gamma/Nuclear receptor coactivator 3 (Homo sapiens, UniProt P37231); format: functional;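 also: agonist potency for raising coactivator recruitment to the receptor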
# [4] = A549 cell cytotoxicity, dose response, cytotoxicity control, plate reader, cherry-pick, antagonist series (AID 743412); format: functional, cell-based
# [5] = toxicity toward HepG2 liver cells – cell-based, plate reader, cherry-pick, antagonist series, cytotoxicity control, dose response (AID 743416); format: functional
# [6] = target: T1, Nuclear receptor subfamily 0 group B member 1 (Homo sapiens, UniProt P51843); format: functional, cell-based;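 also: HEK293T cells transfected with SF-1 and DAX-1 plus StAR promoter luciferase reporter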
# T1 sequence (P51843 whole entry): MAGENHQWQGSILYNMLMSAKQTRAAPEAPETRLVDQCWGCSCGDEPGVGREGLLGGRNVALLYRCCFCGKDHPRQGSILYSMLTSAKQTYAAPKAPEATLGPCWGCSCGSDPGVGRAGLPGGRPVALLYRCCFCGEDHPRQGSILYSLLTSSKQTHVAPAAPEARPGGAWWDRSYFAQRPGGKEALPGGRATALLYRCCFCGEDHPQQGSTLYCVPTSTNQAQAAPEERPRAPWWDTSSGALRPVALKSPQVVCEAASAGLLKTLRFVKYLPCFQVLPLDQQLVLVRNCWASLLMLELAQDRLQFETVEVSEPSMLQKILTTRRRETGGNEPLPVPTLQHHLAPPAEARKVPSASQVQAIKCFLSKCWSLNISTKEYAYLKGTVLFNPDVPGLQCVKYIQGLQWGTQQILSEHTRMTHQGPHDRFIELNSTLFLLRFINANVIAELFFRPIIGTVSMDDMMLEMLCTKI
# [7] = blockade of melanocortin 4 receptor signaling – cell-based, plate reader, cherry pick, counter-screen for LGR2 antagonist project, dose response (AID 743444); format: functional;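 also: transfected HEK 293 cells stimulated with alpha-MSH peptide; potency of inhibitors of the alpha-MSH evoked signal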
# [8] = blockers of bursicon-stimulated LGR2 cAMP reporter – cell-based, HEK293, CRE-luciferase reporter, cherry pick, set 2, dose response (AID 743343); format: functional;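 also: transfected cells were stimulated with diluted bursicon conditioned medium after compound addition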
# cells [9] = format: functional, cell-based
# Albumin = Albumin (Bos taurus, UniProt P02769); assay: Counterscreen for inhibitors of T-cell receptor (TCR)-CD3 interaction: Fluorescence-based biochemical high throughput dose response assay to identify inhibitors of T-cell receptor (TCR)-CD3 interaction using a TAMRA-labeled BSA probe.; format: functional
# Caspase-6 = target: T2, Caspase-6 (Homo sapiens, UniProt P55212); assay: inhibition of CASP6 peptide cleavage – biochemical, VEID-R110 fluorescence, cherry-pick, dose response (AID 720632)
# T2 sequence (P55212 whole entry): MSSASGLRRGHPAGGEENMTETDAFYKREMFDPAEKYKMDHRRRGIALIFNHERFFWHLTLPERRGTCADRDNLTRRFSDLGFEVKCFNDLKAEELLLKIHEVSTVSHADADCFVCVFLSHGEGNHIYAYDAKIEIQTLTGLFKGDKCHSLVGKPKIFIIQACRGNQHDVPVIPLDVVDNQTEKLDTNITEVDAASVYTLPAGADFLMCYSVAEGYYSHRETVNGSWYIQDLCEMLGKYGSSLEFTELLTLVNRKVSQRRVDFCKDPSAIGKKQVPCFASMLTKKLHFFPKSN
# ORF 73 = target: T3, ORF 73 (Human herpesvirus 8, UniProt O40947); assay: KSHV LANA DNA-binding disruption – biochemical, fluorescence polarization, cherry-picked samples, dose response (AID 504725); design: species or system Human gammaherpesvirus 8;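 also: fluorescence polarization of a labeled DNA duplex reporting LANA DNA binding; potency is for inhibitors that block LANA binding to the DNA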
# T3 sequence (O40947 whole entry): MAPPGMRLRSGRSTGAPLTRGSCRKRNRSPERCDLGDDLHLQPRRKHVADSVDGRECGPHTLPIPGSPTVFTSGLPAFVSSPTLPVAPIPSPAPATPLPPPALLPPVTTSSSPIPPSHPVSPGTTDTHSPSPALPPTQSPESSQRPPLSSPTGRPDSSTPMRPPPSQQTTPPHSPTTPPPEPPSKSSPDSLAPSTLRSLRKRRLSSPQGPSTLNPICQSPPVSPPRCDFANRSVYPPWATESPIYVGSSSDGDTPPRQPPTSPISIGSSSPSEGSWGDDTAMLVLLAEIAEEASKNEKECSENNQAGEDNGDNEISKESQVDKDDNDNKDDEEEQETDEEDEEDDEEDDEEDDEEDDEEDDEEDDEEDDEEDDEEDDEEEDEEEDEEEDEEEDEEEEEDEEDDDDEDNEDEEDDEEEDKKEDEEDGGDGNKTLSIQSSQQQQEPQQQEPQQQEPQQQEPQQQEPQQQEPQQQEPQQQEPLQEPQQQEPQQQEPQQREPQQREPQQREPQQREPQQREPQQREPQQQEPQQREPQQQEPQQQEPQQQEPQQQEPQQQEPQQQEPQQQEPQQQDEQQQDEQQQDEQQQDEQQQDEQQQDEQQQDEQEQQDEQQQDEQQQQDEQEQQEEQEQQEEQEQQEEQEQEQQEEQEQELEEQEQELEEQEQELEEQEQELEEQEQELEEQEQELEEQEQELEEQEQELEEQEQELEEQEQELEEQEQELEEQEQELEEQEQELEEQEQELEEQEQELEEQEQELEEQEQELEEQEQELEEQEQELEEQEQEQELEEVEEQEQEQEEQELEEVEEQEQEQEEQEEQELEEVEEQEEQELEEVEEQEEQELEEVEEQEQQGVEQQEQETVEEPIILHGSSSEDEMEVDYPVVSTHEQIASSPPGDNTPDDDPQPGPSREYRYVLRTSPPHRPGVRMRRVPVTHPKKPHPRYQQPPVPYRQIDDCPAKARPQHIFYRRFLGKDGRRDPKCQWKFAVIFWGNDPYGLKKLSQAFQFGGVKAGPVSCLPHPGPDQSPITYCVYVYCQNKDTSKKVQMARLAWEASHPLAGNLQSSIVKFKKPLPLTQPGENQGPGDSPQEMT
# cells [10] = assay: cells
# [11] = target: T4, Oxysterols receptor LXR-beta (Homo sapiens, UniProt P55055); format: functional, cell-based;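 also: Cell-based luminescence dose-response assay of agonist activity at LXR, run as a confirmatory counterscreen to a daf-12 agonist screen; HEK293 cells with Gal4-LXR fusion and GAL4-driven luciferase reporter; agonist potency from rising luciferase signal of a Gal4-LXR reporter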
# T4 sequence (P55055 whole entry): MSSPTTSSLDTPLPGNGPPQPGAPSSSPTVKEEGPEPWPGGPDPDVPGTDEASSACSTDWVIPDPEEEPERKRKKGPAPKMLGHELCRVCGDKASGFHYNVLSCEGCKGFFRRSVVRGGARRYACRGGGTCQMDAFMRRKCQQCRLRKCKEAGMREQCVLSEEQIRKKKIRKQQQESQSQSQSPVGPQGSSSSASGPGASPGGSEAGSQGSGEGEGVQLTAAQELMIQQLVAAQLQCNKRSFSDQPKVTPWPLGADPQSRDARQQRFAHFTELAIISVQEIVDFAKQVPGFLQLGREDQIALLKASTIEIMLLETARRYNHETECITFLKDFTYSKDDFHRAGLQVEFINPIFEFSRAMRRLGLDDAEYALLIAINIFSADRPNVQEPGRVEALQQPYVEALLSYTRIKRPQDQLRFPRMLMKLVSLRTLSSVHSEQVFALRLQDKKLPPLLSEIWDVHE
# Protein skinhead-1 = target: T5, Protein skinhead-1 (Caenorhabditis elegans, UniProt P34707); format: functional
# T5 sequence (P34707 whole entry): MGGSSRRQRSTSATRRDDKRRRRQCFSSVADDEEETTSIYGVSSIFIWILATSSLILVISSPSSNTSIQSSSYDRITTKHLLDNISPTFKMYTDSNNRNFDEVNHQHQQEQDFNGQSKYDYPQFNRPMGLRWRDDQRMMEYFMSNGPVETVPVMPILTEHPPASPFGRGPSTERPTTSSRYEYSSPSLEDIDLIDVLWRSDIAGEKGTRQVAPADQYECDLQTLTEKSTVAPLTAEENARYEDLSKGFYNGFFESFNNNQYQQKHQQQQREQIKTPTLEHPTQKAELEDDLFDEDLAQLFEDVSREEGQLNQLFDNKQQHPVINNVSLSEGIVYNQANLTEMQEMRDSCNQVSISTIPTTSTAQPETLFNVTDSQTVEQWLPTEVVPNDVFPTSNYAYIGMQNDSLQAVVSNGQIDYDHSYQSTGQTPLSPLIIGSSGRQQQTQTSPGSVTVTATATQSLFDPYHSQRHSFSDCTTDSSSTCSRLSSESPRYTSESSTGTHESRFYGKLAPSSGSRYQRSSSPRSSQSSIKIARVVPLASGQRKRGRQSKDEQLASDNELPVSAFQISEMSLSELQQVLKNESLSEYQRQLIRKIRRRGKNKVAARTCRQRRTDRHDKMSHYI
# [12] = target: T6, Zinc finger protein mex-5 (Caenorhabditis elegans, UniProt Q9XUB2); assay: potency of MEX-5 RNA-binding blockers – biochemical, C. elegans, fluorescence polarization, dose response (AID 1960)
# T6 sequence (Q9XUB2 whole entry): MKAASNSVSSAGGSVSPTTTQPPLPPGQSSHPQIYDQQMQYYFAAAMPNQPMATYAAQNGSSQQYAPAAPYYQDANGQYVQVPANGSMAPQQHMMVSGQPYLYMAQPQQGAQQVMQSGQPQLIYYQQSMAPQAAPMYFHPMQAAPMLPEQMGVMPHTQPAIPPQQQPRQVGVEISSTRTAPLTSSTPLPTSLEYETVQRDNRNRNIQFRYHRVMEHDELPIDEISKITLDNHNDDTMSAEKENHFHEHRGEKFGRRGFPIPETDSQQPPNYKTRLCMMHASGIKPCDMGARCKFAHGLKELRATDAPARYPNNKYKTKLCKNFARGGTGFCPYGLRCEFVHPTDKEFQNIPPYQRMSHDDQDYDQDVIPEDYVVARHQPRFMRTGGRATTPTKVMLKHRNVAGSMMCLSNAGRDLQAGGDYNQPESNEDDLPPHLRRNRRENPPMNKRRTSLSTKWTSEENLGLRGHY
# [13] = target: T7, RNA-binding protein pos-1 (Caenorhabditis elegans, UniProt G5EF15); assay: disruptors of C. elegans POS-1 RNA interaction – biochemical, fluorescence polarization, dose response (AID 1964);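 also: purified POS-1 fused to maltose binding protein made in E. coli; potency of compounds blocking POS-1 binding to fluorescent RNA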
# T7 sequence (G5EF15 whole entry): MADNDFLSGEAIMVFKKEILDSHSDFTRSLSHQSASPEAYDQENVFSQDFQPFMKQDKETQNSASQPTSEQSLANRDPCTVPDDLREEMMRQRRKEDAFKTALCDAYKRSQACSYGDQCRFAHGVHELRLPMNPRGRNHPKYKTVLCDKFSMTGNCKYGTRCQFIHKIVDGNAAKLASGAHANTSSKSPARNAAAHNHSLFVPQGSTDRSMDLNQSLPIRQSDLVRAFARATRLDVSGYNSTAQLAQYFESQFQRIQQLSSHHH
# [14] = target: DNA dC->dU-editing enzyme APOBEC-3G (Homo sapiens, UniProt Q9HC16); assay: Dose Response confirmation of small molecule APOBEC3G DNA Deaminase Inhibitors via a fluorescence-based single-stranded DNA deaminase assay. [Related pubchem assays (depositor defined):AID493012, AID493028]; format: functional
# [15] = Luminescence Cell-Based Dose Confirmation HTS to Identify Inhibitors of Platelet Dense Granule Release. [Related pubchem assays: 1663 (Primary HTS), 1678 (Summary of Project)]; format: functional
# [16] = target: Luciferin 4-monooxygenase (Photinus pyralis, UniProt P08659); assay: inhibition of purified Photinus pyralis luciferase – biochemical, luminescence, dose response (AID 1891)
# Cytochrome P450 3A4 = Cytochrome P450 3A4 (Homo sapiens, UniProt P08684); conditions: Potency;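 also: confirmatory qHTS run detecting inhibitors and substrates of CYP3A4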
# Chain of Peroxisome proliferator-activated receptor gamma/Nuclear receptor coactivator 1 (P37231 whole entry): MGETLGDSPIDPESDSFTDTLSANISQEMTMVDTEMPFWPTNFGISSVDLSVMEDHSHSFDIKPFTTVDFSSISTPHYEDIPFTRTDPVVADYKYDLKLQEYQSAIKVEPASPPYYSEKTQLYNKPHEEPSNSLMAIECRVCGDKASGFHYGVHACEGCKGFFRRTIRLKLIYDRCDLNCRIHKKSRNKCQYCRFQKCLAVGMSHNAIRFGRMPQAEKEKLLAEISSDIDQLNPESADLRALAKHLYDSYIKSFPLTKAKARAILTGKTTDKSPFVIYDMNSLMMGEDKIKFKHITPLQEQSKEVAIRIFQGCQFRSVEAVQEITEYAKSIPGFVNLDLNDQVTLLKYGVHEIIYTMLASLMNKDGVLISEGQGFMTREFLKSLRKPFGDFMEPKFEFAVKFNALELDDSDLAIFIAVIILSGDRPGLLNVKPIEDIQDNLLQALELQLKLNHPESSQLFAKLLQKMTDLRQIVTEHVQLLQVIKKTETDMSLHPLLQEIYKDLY
# Chain of Peroxisome proliferator-activated receptor gamma/Nuclear receptor coactivator 1 (Q15788 whole entry, further chain): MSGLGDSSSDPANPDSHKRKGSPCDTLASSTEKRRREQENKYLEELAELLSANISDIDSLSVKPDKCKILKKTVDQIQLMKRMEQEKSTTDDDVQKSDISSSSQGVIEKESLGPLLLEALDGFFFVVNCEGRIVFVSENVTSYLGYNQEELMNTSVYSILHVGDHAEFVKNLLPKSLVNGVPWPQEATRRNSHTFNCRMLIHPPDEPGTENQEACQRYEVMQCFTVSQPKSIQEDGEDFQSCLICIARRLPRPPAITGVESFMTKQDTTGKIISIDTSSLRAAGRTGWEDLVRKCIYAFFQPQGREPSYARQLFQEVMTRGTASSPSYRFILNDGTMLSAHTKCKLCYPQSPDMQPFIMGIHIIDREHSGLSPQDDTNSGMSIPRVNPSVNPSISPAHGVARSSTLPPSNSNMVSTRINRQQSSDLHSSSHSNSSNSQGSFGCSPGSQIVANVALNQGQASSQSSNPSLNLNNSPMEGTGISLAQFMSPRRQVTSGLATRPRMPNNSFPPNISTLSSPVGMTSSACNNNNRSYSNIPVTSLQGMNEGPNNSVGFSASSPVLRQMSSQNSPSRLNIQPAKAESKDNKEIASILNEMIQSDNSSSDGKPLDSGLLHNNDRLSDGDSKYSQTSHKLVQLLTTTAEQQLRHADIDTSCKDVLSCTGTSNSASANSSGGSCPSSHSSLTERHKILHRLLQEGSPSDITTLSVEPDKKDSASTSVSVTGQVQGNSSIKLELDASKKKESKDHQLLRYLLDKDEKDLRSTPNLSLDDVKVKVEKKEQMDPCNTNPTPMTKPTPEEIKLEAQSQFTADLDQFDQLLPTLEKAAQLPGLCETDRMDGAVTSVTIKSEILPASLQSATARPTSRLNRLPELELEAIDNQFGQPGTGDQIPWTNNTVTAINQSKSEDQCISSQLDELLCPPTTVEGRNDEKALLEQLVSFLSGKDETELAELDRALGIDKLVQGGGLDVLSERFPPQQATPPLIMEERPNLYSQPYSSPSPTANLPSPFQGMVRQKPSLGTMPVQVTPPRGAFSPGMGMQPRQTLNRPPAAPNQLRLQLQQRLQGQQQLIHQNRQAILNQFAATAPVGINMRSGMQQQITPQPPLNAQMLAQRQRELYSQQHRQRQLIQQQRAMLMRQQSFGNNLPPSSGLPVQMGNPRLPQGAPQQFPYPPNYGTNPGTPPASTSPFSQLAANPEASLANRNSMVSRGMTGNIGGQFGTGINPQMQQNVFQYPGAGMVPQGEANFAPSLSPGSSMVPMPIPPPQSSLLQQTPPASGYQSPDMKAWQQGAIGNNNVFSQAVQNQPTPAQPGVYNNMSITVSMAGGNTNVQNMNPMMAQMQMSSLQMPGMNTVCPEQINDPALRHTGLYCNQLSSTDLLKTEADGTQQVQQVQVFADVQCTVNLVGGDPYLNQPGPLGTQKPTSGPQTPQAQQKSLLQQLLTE
# Chain of Peroxisome proliferator-activated receptor gamma/Nuclear receptor coactivator 3 (P37231 whole entry): as the sequence (P37231 whole entry) above
# Chain of Peroxisome proliferator-activated receptor gamma/Nuclear receptor coactivator 3 (Q9Y6Q9 whole entry, further chain): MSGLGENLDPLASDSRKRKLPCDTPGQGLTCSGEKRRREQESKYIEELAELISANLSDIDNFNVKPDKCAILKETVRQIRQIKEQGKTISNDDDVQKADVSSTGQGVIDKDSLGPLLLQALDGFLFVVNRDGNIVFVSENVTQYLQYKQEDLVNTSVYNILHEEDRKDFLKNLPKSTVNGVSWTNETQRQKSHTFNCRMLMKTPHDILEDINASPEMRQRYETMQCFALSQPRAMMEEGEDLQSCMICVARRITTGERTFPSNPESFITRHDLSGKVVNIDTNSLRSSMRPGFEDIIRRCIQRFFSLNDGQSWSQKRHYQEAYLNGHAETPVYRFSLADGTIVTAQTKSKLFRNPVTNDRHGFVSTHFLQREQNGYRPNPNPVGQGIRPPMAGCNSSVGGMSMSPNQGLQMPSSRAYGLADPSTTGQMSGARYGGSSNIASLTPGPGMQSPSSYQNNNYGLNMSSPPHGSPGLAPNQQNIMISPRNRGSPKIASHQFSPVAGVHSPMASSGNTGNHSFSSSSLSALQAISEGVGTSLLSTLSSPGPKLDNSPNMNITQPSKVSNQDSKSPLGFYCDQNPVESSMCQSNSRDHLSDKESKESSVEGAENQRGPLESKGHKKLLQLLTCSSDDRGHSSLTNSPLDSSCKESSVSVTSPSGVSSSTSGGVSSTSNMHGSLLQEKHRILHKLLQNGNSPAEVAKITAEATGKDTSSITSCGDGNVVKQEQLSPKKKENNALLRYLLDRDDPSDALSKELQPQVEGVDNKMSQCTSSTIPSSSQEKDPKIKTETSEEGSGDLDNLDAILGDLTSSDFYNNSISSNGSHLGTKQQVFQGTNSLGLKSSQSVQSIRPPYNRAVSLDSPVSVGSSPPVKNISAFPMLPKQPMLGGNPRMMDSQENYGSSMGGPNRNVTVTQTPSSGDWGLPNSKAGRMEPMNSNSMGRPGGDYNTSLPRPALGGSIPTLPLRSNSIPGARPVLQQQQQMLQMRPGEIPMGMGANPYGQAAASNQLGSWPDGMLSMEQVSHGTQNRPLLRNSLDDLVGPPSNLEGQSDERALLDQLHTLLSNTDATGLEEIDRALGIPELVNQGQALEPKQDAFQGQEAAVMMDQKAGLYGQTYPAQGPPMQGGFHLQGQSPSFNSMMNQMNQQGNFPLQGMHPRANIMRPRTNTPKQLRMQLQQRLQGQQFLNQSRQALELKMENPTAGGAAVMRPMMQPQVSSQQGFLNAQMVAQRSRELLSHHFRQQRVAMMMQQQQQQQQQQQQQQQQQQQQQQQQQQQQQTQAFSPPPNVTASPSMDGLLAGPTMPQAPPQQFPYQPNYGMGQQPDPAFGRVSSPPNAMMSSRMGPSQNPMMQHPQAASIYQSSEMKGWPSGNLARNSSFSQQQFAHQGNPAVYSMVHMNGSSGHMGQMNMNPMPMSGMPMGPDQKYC
# Chain of Albumin (P02769 whole entry): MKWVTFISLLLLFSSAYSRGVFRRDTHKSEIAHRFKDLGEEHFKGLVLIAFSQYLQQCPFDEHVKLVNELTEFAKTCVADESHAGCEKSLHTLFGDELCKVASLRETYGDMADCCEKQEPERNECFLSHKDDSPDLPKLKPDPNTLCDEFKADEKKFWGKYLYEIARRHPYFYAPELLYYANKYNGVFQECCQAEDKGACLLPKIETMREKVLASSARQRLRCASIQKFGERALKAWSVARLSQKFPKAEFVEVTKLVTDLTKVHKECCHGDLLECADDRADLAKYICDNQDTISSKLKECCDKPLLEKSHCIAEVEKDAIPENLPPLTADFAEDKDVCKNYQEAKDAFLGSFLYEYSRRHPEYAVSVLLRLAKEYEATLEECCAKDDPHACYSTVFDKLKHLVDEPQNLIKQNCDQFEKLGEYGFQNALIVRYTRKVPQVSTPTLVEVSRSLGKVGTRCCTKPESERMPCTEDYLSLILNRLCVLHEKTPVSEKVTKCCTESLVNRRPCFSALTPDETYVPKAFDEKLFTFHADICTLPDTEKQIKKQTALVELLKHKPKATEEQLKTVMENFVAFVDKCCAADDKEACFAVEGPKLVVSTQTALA
# Chain of DNA dC->dU-editing enzyme APOBEC-3G (Q9HC16 whole entry): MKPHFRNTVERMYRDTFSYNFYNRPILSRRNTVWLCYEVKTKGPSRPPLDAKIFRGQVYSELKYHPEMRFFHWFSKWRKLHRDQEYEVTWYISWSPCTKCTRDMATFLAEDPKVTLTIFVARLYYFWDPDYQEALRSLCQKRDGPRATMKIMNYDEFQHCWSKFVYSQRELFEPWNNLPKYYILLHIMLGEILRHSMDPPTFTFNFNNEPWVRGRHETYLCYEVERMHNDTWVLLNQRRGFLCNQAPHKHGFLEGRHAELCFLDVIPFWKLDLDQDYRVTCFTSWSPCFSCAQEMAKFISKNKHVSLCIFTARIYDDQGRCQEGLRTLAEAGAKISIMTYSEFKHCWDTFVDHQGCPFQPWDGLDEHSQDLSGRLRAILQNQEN
smiles,measurement,setting,value
CCOc1ccc(NC2=NN=C(c3cc(C)n(CC4CCCO4)c3C)CS2)cc1 (configuration not stated),EC50,[1],> 79.4 µM (not active)
same,EC50,[2],> 79.4 µM (not active)
same,EC50,[3],> 79.4 µM (not active)
CC(C)c1nnc(NC(=O)c2ccc3c(c2)OCO3)s1,AC50,[4],> 52 µM (inactive)
same,AC50,[5],> 52 µM (inactive)
same,IC50,[6],> 0.278 µM (active)
same,AC50,[7],5.43 µM (active)
same,AC50,[8],4.95 µM (active)
same,IC50,cells [9],> 67.6 µM (inactive)
O=C(NNC(=O)c1ccccc1F)c1cccc(-n2cccc2)c1,IC50,Albumin,> 94 µM (inactive)
same,AC50,Caspase-6,1.2 µM (active)
COCCn1c(C)cc(C(=O)CN2C(=O)NC3(CCCCCC3)C2=O)c1C,IC50,[6],> 67.5 µM (inactive)
same,IC50,cells [9],> 67.5 µM (inactive)
CCn1c(SCc2nc(O)c3c(C)c(C(=O)O)sc3n2)nc2ccccc21,AC50,ORF 73,32.2 µM (active)
Cc1ccc(OCC(=O)NNC(=O)C(=O)NC(C)(C)C)cc1,EC50,[1],> 79.4 µM (not active)
same,EC50,[2],> 79.4 µM (not active)
same,EC50,[3],> 79.4 µM (not active)
Cc1ccc2[nH]c(CSc3nc(C)cc(C)c3C#N)nc2c1,EC50,cells [10],> 67.5 µM (inactive)
same,EC50,[11],> 67.5 µM (inactive)
CC(=O)NNC(=S)NC(=O)c1ccc(C)cc1,IC50,Albumin,> 94 µM (inactive)
O=C(c1cccs1)c1ccc(-c2cccs2)s1,IC50,Protein skinhead-1,26.5 µM (active)
same,EC50,[12],> 300 µM (not active)
same,EC50,[13],215 µM (active)
same,EC50,cells [10],> 67.5 µM (inactive)
same,EC50,[11],> 67.5 µM (inactive)
COc1ccc(Cn2c(-c3ccc(C)cc3)nc3c(c(=O)c4ccccc4n3C)c2=O)cc1,EC50,[1],> 79.4 µM (not active)
same,EC50,[2],> 79.4 µM (not active)
same,EC50,[3],> 79.4 µM (not active)
CCN(CC)c1ccc(NC(=O)c2ccccn2)cc1S(=O)(=O)Nc1ccccc1OC,IC50,[14],69.2 µM (active)
O=C(/C=C/Nc1ccc(F)cc1F)c1ccco1,IC50,[6],> 67.5 µM (inactive)
same,IC50,Protein skinhead-1,17 µM (active)
same,EC50,[15],4.36 µM (active)
same,IC50,cells [9],> 67.5 µM (inactive)
same,EC50,[16],0.812 µM (active)
"COc1ccc(-c2cc(=O)c3cc(OC)ccc3o2)cc1 [6,4'-DIMETHOXYFLAVONE]",AC50,Cytochrome P450 3A4,3.16 µM (inconclusive)
same,IC50,[6],> 67.5 µM (inactive)
same,IC50,cells [9],> 67.5 µM (inactive)
